Test results published in US5672585A, “Method and composition for treating thrombosis” (priority 1995, dated 1997).
pIC50: −log10 of the molar value.

What was measured:
platelets [1] = assay: Ex vivo platelet aggregation in the canine coronary thrombosis study; details: dog
Procedure: For all ex vivo studies (see FIGS. 3A, 3B1, 3B2, 3B3, 3C1 and 3C2), control aggregation values were standardized to the percentages of light transmission observed in PRP and PPP samples (0% and 100%, respectively).
(§1) Animals were randomly assigned to two treatment groups: vehicle control (i.e., normal saline) or RGD peptides at various concentrations. Peptides were administered intra-atrially in both bolus and continuous injections. Each bolus injection consisted of 0.5 to 10 mg/kg and was administered 15 minutes before application of the current. A continuous infusion of the same peptide was then started immediately after completion of this initial injection. Animals received a 25 μg/kg/min to 200 μg/kg/min infusion. The anti-thrombotic effects of the peptides were monitored until 30 minutes after the occurrence of a persistent, occlusive thrombus or five hours after the initiation of electrical stimulation (whichever resulted first). If an occlusive thrombus had not developed within four hours after the initiation of current, the peptide infusion was stopped.
Platelet counts and ex vivo aggregation studies were performed one hour before and 1, 3, and 5 hours after application of anodal direct current.
Platelet aggregation was also determined ex vivo at one, three, and five hours after current application. For these studies, arachidonic acid, or collagen was again used to stimulate the platelets.

platelets [2] = assay: Platelet aggregation on PRP of the peptide-treated baboon; type: in vivo; details: baboon animal 2, ADP 10 μm, 0, 1 and 2 hours
Procedure: At one- and two-hour time points, template bleeding times were measured, and blood samples were drawn to assess the hematology aggregation studies. Platelet aggregation studies were performed as described in Example V using ADP as the stimulus.
In addition, platelet aggregation studies were conducted on PRP derived from the second animal. Whole blood was drawn at three time points (0, 1 and 2 hours) of both control and experimental shunts.

canine platelets = assay: Canine platelet aggregation in vitro (ADP, arachidonic acid, collagen); type: cell-based, dog; details: stimulated by 10 μm ADP, […] arachidonic acid or 9.6 micrograms/ml collagen; read-out: IC50 against canine platelet aggregation
coronary thrombosis = assay: Electrically induced canine coronary thrombosis, time to full occlusion; type: in vivo; details: dog
Procedure: Male mongrel dogs weighing 14 to 20 kg were selected based on proper aggregation of their platelets in response to arachidonic acid, collagen, and adenosine disphosphate (ADP) and based on similar weights and hemodynamic properties.
Before surgery, the animals were anesthetized with sodium pentobarbital (30 mg/kg, i.v.) and then intubated and ventilated on room air with positive pressure using a respirator (Harvard Apparatus, S. Natick, Mass.) at a volume of 30 ml/kg and a frequency of 12 breaths/min. Surgery, performed under aseptic conditions, was begun with the placement of cannulae into the left carotid artery and jugular vein for monitoring arterial blood pressure (Statham P23 pressure transducer, Gould, Inc., Cardiovascular Products, Oxnard, CA) and administering intravenous fluids.
The heart was exposed via a left thoracotomy through the 5th intercostal space. A 2-cm segment of the left circumflex coronary artery (LCCA) was isolated from surrounding tissue by blunt dissection. […] The intra-coronary electrode was constructed by attaching a 25-gauge hypodermic needle tip to a 30-gauge Teflon-insulated silver-coated copper wire. The mechanical occluder was constructed of stainless steel in a C shape with a Teflon screw (2 mm diameter) on top. It was adjusted to control vessel circumference and decrease the reactive hyperemic flow due to a 10-sec (full) occlusion by 50-70% without affecting basal coronary blood flow (FIG. 1C). A monopolar epicardial electrode was sutured to the surface of the ventricle in the region of LCCA distribution to monitor ischemic changes in the electrocardiogram (ECG). The left atrium was cannulated with polythylene tubing for administration of the peptide. Continuous recordings of blood pressure, limb lead II ECG, epicardial electrogram, and mean and phasic LCCA blood flow were obtained on a Model 7 polygraph (Grass Instrument Co., Quincy, Mass.).
One hour after the completion of surgery, a 100 micro-amp continuous anodal direct current delivered from a 9 volt nickel-cadmium battery was applied to the intimal surface of the LCCA. The anode of the battery was in series with a 250,000 ohm potentiometer and the intraluminal coronary artery electrode. The electric circuit was completed by placing the cathode in a subcutaneous site. Electrical stimulation was applied for three hours. At the conclusion of each experiment, the heart was fibrillated electrically and quickly removed, and the LCCA was dissected free as far as possible to verify the position of the implanted anodal electrode.
as §1
Coronary thrombosis was quantified as the time to full occlusion. The effects of the various peptide treatments on coronary thrombosis is illustrated in FIG. 4.

[3] = test system: Gore-tex vascular graft thrombosis; assay: Platelet and fibrinogen uptake by Gore-Tex grafts, baboon ex vivo shunt; type: in vivo
Procedure: Adult male baboons (weighing 16 to 25 kg) were used in these studies. These were sedated with ketamine hydrochloride (200 to 250 mg intramuscular injection) and maintained under anesthesia with sodium pentobarbital (50 to 75 mg administered intravenously as necessary).
Twenty-four hours before the ex vivo shunt was established, platelets were isolated from 500 ml of blood from the test animal and labelled with ca. 500 microcuries of indium-111 oxine (Medi+Physics, Emeryville, Calif.), which irreversibly and specifically binds to platelets with an efficiency of 50%. Immediately after labelling, these platelets were then injected back into the animal and allowed to circulate for 24 hours. Immediately before the start of the study, fibrinogen that had been isolated from the animal and labelled with iodine-131 (DuPont Nuclear, Boston, Mass.) was also injected back into the animal. Also at this time, baseline determinations of the clotting and template bleeding times were made, and blood samples were drawn for hematology studies.
To establish the ex vivo shunt, the femoral artery and vein were percutaneously cannulated with introducer catheters (KMA Inc., Mansfield, Mass.). The catheters were then connected to medical-grade, heparin-coatedsilastic tubing (2.59 mm internal diameter, (Extracorporeal Medical Specialties, Inc., King of Prussia, Pa.). […] Finally, a 5 cm-long test segment of a 4 mm (internal diameter) vascular graft was inserted at the apex of the circuit. The graft used in these studies was Gore-tex (expanded polytetrafluoroethylene, (W. L. Gore and Associates, Inc., Flagstaff, Az). An electromagnetic flow probe was then inserted into the tubing circuit to measure blood flow, which was maintained at 100 ml/min. by varying the resistance imported by a partially occluding screw clamp that was distal to the probe. Finally, a 5 cm-long test segment of a 4 mm (internal diameter) vascular graft was inserted at the apex of the circuit. The graft used in these studies was Gore-tex (expanded polytetrafluoroethylene, W. L. Gore and Associates, Inc., Flagstaff, Ariz.).
Platelet deposition onto the grafts was monitored by dynamic scanning with a gamma camera (Sigma 400, Ohio Nuclear, Inc., Sohon, Ohio), which detects the gamma radiation emitted by the ^111 indium-labelled platelets. Once the circuit was in place, the animal was placed under this camera, and blood flow was initiated. Scans were then taken at the rate of one frame per two minutes for two hours. The data from these scans were collected on a dedicated Digital MDA computer (Maynard, Mass.). […]

human platelets = assay: Human platelet aggregation, modified assay (Table II); type: cell-based; details: human PRP, citrate; aggregating agent collagen, U46619 or ADP
Procedure: In an independent study, a slightly modified aggregation assay was used. Platelet aggregation assays were performed in human platelet rich plasma (PRP). […] The blood was centrifuged at 160×g for 10 minutes at 22° C. and allowed to stand for 5 minutes after which the PRP was decanted. Platelet poor plasma (PPP) was isolated from the remaining blood after centrifugation at 2000×g for 25 minutes. The platelet count of the PRP was diluted to about 300,000 platelets per microliter with PPP.
A 225 μl aliquot of PRP plus 25 μl of either a dilution of the test inhibitor sample or a control (PBS) was incubated for 5 minutes in a Chrono-log Whole Blood Aggregometer at 37° C. An aggregating agent (collagen, 1 μg/ml; U46619, 100 ng/ml; or ADP, 17μM) was added and the transmission was recorded.

platelets [4] = assay: ADP-stimulated platelet aggregation in platelet-rich plasma (Table I); details: read-out: ADP-Stimulated Aggregation; ADP 10 μm, citrated platelet-rich plasma, 37° C.; * concentrations unconfirmed by amino acid composition analysis
Procedure: (§2) Briefly, the change in light transmission was measured through a stirred suspension of platelets in an aggregometer (Model 400 VS, Chrono-Log, Hayertown, Pa., USA). […] In studies using thrombin, the PRP was gel-filtered on Sepharose 2B in divalent ion-free Tyrode's solution containing 2% BSA. For all studies, the reference standard was platelet-poor plasma, which was obtained by centrifuging PRP at 1000×g for 5 min.
(§3) All aggregation studies were performed at 37° C. with a constantly stirred suspension of 3×10^8 platelets/ml. (Platelet count was determined with the aid of a hemacytometer.) Peptides and stimulants were added to these suspensions in 1% dilutions. The PRP and gel-filtered platelets were used within three hours from the time of blood collection.
(§4) Peptide anti-aggregation potencies were determined from dose-responsive curves for the inhibition of the maximum aggregation responses stimulated by physiologic doses of ADP (10 μm) and thrombin (2 U/ml).

[5] = Peripheral blood flow (PBF), laser dopler flow probe, rabbit ear; type: in vivo; details: time 10 min, bolus dose as listed per peptide
Procedure: Unanesthetized male New Zealand White rabbits (2.5-3.5 kg) were placed in a standard rabbit restrainer. Ears were shaved and a 20G teflon catheter with flowswitch (Viggo) was placed in the medial artery, flushed with saline and locked with 1 ml of heparinized saline ([…]). A 22G catheter (Abbott) fitted with an injection cap (Medex) was placed in the marginal vein of the same ear. Saline or a GP IIb IIIa receptor antagonist, at a concentration of 1 to 3 mg/ml, was infused via the venous catheter. At time 0, 41% of the dose was given as a bolus over 2 minutes. The remainder was continuously infused over the following 60 minutes. Blood samples (3.2 ml) were collected into syringes without needles via the arterial catheter at -10, -5, 10, 45 and 60 minutes. […] The sample was divided into 1.5 ml aliquots and centrifuged at room temperature for 5 seconds at 12,000 G. The resulting platelet rich plasma (PRP) is used to measure ex-vivo platelet aggregation (XPA). […]
In an alternative series of experiments, (Table 2) PBF was measured quantitatively with a laser dopler flow probe (Perimed). The probe was positioned securely over the vascular bed of one ear and flow monitored continuously. Each inhibitor was infused and CBT measured in the opposing ear. No arterial catheter was placed for blood sampling, consequently XPA […] in these animals. […]

platelets [6] = assay: Thrombin-stimulated platelet aggregation (Table I); details: read-out: Thrombin Stimulated Aggregation; thrombin 2 U/ml, gel-filtered platelets, 37° C.
Procedure: as §2, §3, §4

platelets [7] = assay: Ex vivo platelet aggregation in dogs (Example XII H); details: dog, 10 μg/mL collagen as agonist
Procedure: More importantly, several peptides in FIG. 23 were administered to dogs (according to the method of Example VII) at doses capable of inhibiting ex vivo platelet aggregation by >95%.
The bleeding time indicated in the parentheses was measured at a five-fold higher concentration of peptide. […]

GP IIb/IIIa = GP IIb/IIIa (Homo sapiens, UniProt P05106+P08514); assay: Inhibition of ligand binding to GP IIb/IIIa; details: fibrinogen versus fibronectin and vitronectin
Sequence of GP IIb/IIIa (P08514 32-887 limits assumed): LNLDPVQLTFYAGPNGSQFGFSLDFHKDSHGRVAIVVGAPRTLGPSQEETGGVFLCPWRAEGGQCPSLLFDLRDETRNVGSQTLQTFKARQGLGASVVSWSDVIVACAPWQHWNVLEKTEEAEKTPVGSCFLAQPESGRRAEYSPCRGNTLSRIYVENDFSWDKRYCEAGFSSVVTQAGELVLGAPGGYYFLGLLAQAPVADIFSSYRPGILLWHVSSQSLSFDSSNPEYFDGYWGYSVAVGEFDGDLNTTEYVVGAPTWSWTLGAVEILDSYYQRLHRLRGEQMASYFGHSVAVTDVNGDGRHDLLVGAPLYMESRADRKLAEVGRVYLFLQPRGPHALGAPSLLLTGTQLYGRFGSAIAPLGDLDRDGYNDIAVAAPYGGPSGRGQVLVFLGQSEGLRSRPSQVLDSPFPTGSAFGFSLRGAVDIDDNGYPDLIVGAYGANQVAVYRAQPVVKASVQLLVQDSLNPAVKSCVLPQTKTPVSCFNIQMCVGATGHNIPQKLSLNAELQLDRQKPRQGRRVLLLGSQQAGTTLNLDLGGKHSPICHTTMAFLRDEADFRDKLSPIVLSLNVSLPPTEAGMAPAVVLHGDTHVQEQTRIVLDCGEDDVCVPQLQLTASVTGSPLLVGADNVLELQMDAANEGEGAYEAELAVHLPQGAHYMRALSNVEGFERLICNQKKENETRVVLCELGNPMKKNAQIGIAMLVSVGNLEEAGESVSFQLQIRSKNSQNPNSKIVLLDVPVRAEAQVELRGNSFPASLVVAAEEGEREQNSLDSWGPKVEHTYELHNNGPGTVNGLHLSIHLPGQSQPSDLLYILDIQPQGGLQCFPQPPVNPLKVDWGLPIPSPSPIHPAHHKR
Sequence of GP IIb/IIIa (P08514 891-1039 partner limits assumed): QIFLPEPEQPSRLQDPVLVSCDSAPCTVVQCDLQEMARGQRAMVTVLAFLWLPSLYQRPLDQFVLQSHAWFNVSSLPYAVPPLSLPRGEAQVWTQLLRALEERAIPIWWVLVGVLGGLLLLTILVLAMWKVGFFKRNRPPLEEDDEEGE
Sequence of GP IIb/IIIa (P05106 27-788): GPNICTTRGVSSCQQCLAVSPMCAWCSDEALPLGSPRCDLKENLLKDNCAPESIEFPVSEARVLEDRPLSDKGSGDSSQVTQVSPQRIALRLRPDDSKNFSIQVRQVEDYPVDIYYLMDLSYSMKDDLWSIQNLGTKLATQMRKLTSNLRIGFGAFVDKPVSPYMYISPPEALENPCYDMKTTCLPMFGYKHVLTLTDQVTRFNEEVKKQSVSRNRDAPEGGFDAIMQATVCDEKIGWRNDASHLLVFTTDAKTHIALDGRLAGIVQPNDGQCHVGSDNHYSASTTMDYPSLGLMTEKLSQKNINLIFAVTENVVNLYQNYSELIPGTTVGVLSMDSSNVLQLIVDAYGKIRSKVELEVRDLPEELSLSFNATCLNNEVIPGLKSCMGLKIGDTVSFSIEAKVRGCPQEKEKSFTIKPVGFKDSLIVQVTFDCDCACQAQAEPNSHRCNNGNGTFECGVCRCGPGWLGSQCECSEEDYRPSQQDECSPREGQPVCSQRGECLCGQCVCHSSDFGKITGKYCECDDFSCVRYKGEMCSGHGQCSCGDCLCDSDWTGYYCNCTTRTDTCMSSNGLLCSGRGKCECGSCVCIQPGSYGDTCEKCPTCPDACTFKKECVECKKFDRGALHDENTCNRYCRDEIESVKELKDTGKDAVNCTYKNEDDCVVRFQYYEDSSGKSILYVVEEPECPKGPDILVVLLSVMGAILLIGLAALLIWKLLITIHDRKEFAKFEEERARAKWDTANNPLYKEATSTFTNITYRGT

[8] = baboon animal 1, two bolus IV injections of 10 mg/kg
[9] = baboon animal 2, 10 mg/kg bolus IV then 10 mg/kg/hr infusion for two hours

Row | Substance | ex vivo ADP-stimulated aggregation (platelets [1]; 10 mg/kg injected, 1, 3 and 5 h) | platelet aggregation in PRP (platelets [2]) | pIC50 (canine platelets) | coronary thrombosis, time to full occlusion (coronary thrombosis; 10 mg/kg) | reduction in 111In-platelet uptake by graft [3, 8] [%] | reduction in 131I-fibrinogen uptake by graft [3, 8] [%] | reduction in labelled fibrinogen uptake by graft [3, 9] [%] | reduction in labelled platelet uptake by graft [3, 9] [%] | IC50 (human platelets) [µM] | ex vivo platelet activation by collagen (platelets [1]; 5 mg/kg injection) | ex vivo platelet response to ADP and AA (platelets [1]; 5 mg/kg injection, all three time points) | ex vivo platelet aggregation by ADP, AA and collagen (platelets [1]; 10 mg/kg injection) | ex vivo platelet responsiveness (platelets [1]; 10 mg/kg, five-hour point) | pIC50 (platelets [4]) | PBF (units) [5] [units] | coronary thrombosis, time to full occlusion (coronary thrombosis; 5 mg/kg) | thrombus formation (coronary thrombosis; 5 mg/kg, circulating platelet levels one-third of normal) | pIC50 (platelets [6]) | ex vivo platelet aggregation inhibited (platelets [7]) [%] | differential inhibition of ligand binding to GP IIb/IIIa (GP IIb/IIIa)
1 | G(Pen)GHRGDLRCA [Peptide 2G] | substantially inhibited | completely unresponsive | 4.52 to 4.82 | did not significantly influence this frequency | 90 | 79 | 78 | 84 | – | – | – | – | – | – | – | – | – | – | – | –
2 | R(Pen)GHRGDWRCR [Peptide 4Q] | – | – | 5.30 to 5.82 | completely prevented occlusion for the full five-hour experimental period | – | – | – | – | 3.3 | near-maximal inhibition | completely unresponsive | prevented platelet aggregation by all three stimuli at one- and three-hour time points | platelet responsiveness was slightly improved | 5.89 | 9 | significantly prolonged the time to occlusion | able to prevent thrombus formation | 5.92 | – | –
3 | Ac-CNPRGD(O-Me-Y)RCNH2 [Peptide 8X] | – | – | – | – | – | – | – | – | – | – | – | – | – | – | – | – | – | – | > 95 | inhibits the binding of fibrinogen to GP IIb/IIIa more than it inhibits the binding of fibronectin and vitronectin to the same integrin
